From PMC12073438, “Stereoselectivity of In Vivo Processes and Bioactivity of Farrerol Enantiomers” (Molecules, 2025) come the findings set out here.

For data set [1], the target named is T1, CYP2A6 (Homo sapiens, UniProt P11509).
T1 sequence (P11509 1-494): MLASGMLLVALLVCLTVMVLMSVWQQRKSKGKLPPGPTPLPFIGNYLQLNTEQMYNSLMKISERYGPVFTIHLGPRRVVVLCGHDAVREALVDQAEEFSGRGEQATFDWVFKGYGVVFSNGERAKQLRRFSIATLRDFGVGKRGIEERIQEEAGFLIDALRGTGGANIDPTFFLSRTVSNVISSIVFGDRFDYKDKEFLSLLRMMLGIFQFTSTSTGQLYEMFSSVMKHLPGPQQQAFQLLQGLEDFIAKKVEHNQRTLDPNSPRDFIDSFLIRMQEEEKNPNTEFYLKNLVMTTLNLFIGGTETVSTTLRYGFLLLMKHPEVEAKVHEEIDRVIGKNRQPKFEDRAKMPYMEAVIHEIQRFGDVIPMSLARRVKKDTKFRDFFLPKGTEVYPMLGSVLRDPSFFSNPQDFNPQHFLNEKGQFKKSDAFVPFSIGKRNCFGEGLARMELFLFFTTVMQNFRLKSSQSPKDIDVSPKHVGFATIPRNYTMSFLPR
The data set can be described thus: CYP inhibition in liver microsomes (coumarin). The settings on record: CYP 2A6; marker substrate coumarin; liver microsomes. As for the experimental part: (§1) A liver microsome working solution (20 mg/mL) contained potassium phosphate buffer (0.1 M, pH 7.4), hepatic microsomes and marker substrate solution, which phenacetin, diclofenic acid, S-mephenytoinwer, dextromethorphan, midazolam, coumarin and chlorzoxazone used as substrates for […], CYP2C9, CYP2C19, CYP2D6, CYP3A4/5, CYP2A6 and CYP2E1, respectively. In brief, 238.5 µL of liver microsome working solution was placed in a 1 mL EP tube. […] The reaction was started by injecting NADPH (1 mM), and the resulting mixture was incubated at 37 °C for 10 min. After centrifuging at 4000 rpm for 15 min, the supernatant was transferred and analyzed using LC-MS/MS to detect the corresponding metabolites. Each incubation was conducted in triplicate (n = 3).
(§2) An API 4000 LC/tandem mass spectrometry was used to analyze the concentration of metabolites of various chemical agents using a validated mode. An Atlantis T3 column (2.1 mm × 50 mm, 5 μm) was utilized, employing mobile phases consisting of a 0.1% formic acid solution (A) and a 0.1% acetonitrile formate solution (B). […] As for the detection of CYP 2E1 metabolite, the Flow composition was as follows: 0–0.30 min, 10% B; 0.30–1.30 min, 10–55% B; 1.30–1.50 min, 55–95% B; 1.50–2.00 min, 95% B; 2.00–2.01 min, 95–10% B; the low rate was 0.85 mL/min. ESI was conducted in positive ion mode. MRM was utilized to quantify each metabolite, detecting the following transitions: m/z 152.1/110 for acetaminophen, 312.1/230.0 for 4′-Hydroxydiclofenac, 235.0/150.0 for 4′-hydroxymephentoin, 258.2/199.1 for Dextrorphan, 342.1/203.0 for 1′-hydroxymidazolam, 161.1/133.1 for hydroxycoumarin, and 184.0/120.0 for 6-hydroxyclozoxadone.
For orientation: Microsomes from liver hold many membrane-bound enzymes, among them those of drug oxidation.

Data set [2] is described as follows: Stereoselective pharmacokinetics in rat plasma. The class given is in vivo, Sprague–Dawley rats. How it is done: The pharmacokinetic data were optimally characterized by a noncompartmental model. The mean concentration-time profiles for the farrerol enantiomers are illustrated in Figure 3, along with the corresponding key pharmacokinetic parameters presented in Table 2.
Twenty-five rats were randomly divided into five experimental groups (A, B, C, D, and E). Groups A and B received farrerol racemate via intragastric administration at doses of 150 mg/kg and 75 mg/kg, respectively. Group C was administered 4 mg/kg of farrerol racemate through caudal intravenous administration. […] Blood samples (300 μL) were obtained from the orbital venous plexus into heparinized tubes at various time points: 0.25, 0.5, 1, 2, 3, 5, 7, 9, 12, and 24 h following gavage administration, and at 0.083, 0.167, 0.25, 0.5, 1, 1.5, 2, 2.5, 3, and 5 h post-intravenous administration. Plasma was separated by centrifugation (3000 rpm, 10 min) and stored at −80 °C until analysis.
A total of 150 μL of plasma and 50 μL of the internal standard solution were added to a 1.5 mL EP tube and mixed using a vortex for 30 s. Subsequently, 500 μL of ether was introduced, and the mixture was vortexed for 5 min. Following centrifugation at 10,000 rpm for 10 min, the resulting organic layer was carefully transferred to a separate tube. Each sample underwent two extraction processes. The resulting ether layer was then evaporated to dryness using a continuous air stream at room temperature. A 250 μL aliquot of methanol was employed to re-dissolve the residue, utilizing vortex mixing for 2 min. Following centrifugation at 14,000 rpm for 10 min, the supernatant was subsequently injected into the HPLC-MS system for analysis.
(§3) Stereoselective chromatographic analysis of farrerol enantiomers was conducted utilizing an ACQUITY UPLC I-Class UPLC system (Waters, Milford, MA, USA), which is equipped with a quaternary pump and an autosampler. The chiral separation was carried out employing a Chiralpak OJ-RH column (250 mm × 4.6 mm, 5 μm), which was obtained from Daicel Chemical Industries (Shanghai, China). The mobile phase consisted of ACN-H2O (60:40, v/v), and the constant flow rate was 0.5 mL/min. The column temperature was set at 25 °C, and the injection volume was 10 μL.
(§4) Mass detection was conducted using a triple quadrupole mass spectrometer (Waters Co., USA) equipped with an electrospray ionization (ESI) source. The detection of enantiomers and internal standards (IS) was carried out in multiple reaction monitoring (MRM) mode utilizing negative ionization. The m/z 299→179 for enantiomers and m/z 267→252 for IS were selected as detecting ions for quantitation. The collision energies (CE) were established at 22 eV and 20 eV, respectively. The primary mass spectrometry (MS) parameters were configured as follows: capillary voltage was set to 3.5 kV, ion source temperature was maintained at 150 °C, desolvation gas flow rate was 800 L/h, and the cone voltage (CV) was adjusted to 1.3 V.
(§5) Pharmacokinetic analysis was conducted utilizing the Drug and Statistics (DAS) 2.0 software provided by the Chinese Pharmacological Society. To assess the differences in pharmacokinetic parameters, the IC50 values of the evaluated CYP enzymes and the permeability coefficients between the two farrerol enantiomers, paired sample t-tests and independent sample t-tests were performed. Statistical significance was defined as * p < 0.05 and ** p < 0.01. All results are presented as mean values ± standard deviation (SD).

Data set [3] in a line: Stereoselective pharmacokinetics in rat liver tissue. The class given is in vivo, Sprague–Dawley rats. The settings on record: rat liver tissue; i.g. 40 mg/kg racemate, within 24 h. As for the experimental part:
(§6) Forty-two rats were divided randomly into seven groups (6 rats per time point at 0.5, 1, 2, 4, 8, 12, and 24 h) and were orally administered farrerol racemate at a dose of 40 mg/kg. Rats from each group were euthanized, and kidney and liver tissues were subsequently obtained. After washing three times using 0.9% sodium chloride solution, the attached blood and fat tissues were removed. Afterward, 0.5 g of the precisely weighed liver and kidney tissues were added to 1 mL 0.9% sodium chloride solution and homogenized in an ice bath. Subsequently, 150 µL of supernatant was transferred into a 2.0 mL EP tube for pre-treatment, in the same way as the pretreatment of plasma samples (see Section 3.4.1).
as §3, §4, §5

Data set [4] in a line: Stereoselective pharmacokinetics in rat kidney tissue. The class given is in vivo, Sprague–Dawley rats. The settings on record: rat kidney tissue; i.g. 40 mg/kg racemate, within 24 h. How it is done: as §6, §3, §4, §5
For data set [5], the system named is CYP3A4/5. The data set can be described thus: CYP inhibition in liver microsomes (midazolam). The conditions noted are these: human, microsomes, pH 7.4. As for the experimental part: as §1, §2
Data set [6] has as its target CYP2C9 (Homo sapiens, UniProt P11712). The data set can be described thus: CYP inhibition in liver microsomes (diclofenac). The conditions noted are these: CYP 2C9, marker substrate diclofenac. How it is done:
as §1, with “After centrifuging at 4000 rpm for 15 min, the supernatant was transferred and analyzed using LC-MS/MS to detect the corresponding metabolites.” left out
An API 4000 LC/tandem mass spectrometry was used to analyze the concentration of metabolites of various chemical agents using a validated mode. An Atlantis T3 column (2.1 mm × 50 mm, 5 μm) was utilized, employing mobile phases consisting of a 0.1% formic acid solution (A) and a 0.1% acetonitrile formate solution (B). […] ESI was conducted in positive ion mode.

Data set [7] has as its target T2, CYP1A2 (Homo sapiens, UniProt P05177).
T2 sequence (P05177 1-516): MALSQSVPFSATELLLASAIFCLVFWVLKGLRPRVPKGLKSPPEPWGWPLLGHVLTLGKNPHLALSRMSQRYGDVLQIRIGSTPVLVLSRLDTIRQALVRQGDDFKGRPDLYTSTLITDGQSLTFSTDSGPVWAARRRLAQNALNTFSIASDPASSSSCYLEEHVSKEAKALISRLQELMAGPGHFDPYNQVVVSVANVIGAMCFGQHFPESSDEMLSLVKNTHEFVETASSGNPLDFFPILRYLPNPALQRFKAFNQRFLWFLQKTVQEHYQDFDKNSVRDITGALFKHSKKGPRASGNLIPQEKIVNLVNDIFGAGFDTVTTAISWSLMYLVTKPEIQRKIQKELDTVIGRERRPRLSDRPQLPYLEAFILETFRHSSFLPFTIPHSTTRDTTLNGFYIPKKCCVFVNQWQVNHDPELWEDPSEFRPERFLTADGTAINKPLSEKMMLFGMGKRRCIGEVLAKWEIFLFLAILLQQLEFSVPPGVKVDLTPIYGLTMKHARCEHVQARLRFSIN
The data set can be described thus: CYP inhibition in liver microsomes (phenacetin). The settings on record: CYP 1A2, marker substrate phenacetin. How it is done: as §1, §2

Sequence of CYP2C9 (P11712 whole entry): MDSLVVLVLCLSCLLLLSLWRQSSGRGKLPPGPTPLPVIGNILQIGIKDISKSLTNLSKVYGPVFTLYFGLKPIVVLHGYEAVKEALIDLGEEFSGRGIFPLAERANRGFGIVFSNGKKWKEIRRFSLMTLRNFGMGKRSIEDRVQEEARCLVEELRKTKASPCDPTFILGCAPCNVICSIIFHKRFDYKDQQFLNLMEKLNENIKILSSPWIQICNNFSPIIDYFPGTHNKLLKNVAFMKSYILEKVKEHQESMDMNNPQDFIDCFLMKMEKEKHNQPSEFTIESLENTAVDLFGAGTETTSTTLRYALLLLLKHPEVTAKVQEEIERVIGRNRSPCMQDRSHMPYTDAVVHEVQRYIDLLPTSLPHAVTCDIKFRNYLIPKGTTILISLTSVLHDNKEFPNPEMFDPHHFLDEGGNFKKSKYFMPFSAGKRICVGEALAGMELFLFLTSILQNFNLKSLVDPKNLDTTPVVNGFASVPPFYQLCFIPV

Usually IC50 stands for the point on the concentration scale where inhibition reaches its midpoint. A higher IC50 goes with weaker potency in that assay. In the case of `N[C@@H]1C[C@H]1c1ccccc1` (racemic) [Tranylcypromine, reference compound], in data set [1], the IC50 stood at 383 nM. Regarding `Cc1c(O)c(C)c2c(c1O)C(=O)CC(c1ccc(O)cc1)O2` (racemic) [racemic farrerol, 2,3-dihydro-5,7-dihydroxy-2-(4-hydroxyphenyl)-6,8-dimethyl-4-benzopyrone], the “enantiomeric fraction (EF) = E(+)/(E(+)+E(−))” value is listed as “around 0.7” in data set [2] (intravenous administration of racemate); “greater than 0.6” in data set [2] (oral administration of racemate (all doses)); “around 0.8” in data set [2] (oral dose of 75 mg/kg, approximately 1.5 to 24 h); “less than 0.5” in data set [3]; “less than 0.5” in data set [4]. As to `CC(=O)N1CCN(c2ccc(OCC3COC(Cn4ccnc4)(c4ccc(Cl)cc4Cl)O3)cc2)CC1` (stereo not drawn) [ketoconazole, reference compound], half-maximal inhibition in data set [5] (IC50 at 10 min) required 10.4 nM. This counts as double-digit nanomolar. As to `Nc1ccc(S(=O)(=O)Nc2ccnn2-c2ccccc2)cc1` [sulfaphenazole, reference compound], it took 219 nM to reach half-maximal inhibition in data set [6] (IC50). That is a sub-micromolar value. Regarding `O=c1cc(-c2ccccc2)oc2ccc3ccccc3c12` [β-naphthoflavone, reference compound], half-maximal inhibition in data set [7] (IC50) required 129 nM.
